The test system of one series is MCF-7 cells. In words: CCK-8 cell viability, MCF-7. It counts as cell-based, human. As to conditions: MCF-7 and T47D, Supplementary Fig. 1e–g.
The nature of series [1]: Serum markers of liver and kidney function in tumor-bearing mice. The conditions noted are these: therapeutic doses. It counts as in vivo.
The subject of series [2] is Tamoxifen-resistant cells LCC2. Description: CCK-8 cell viability, LCC2. The conditions noted are these: LCC2, Fig. 7h, i. It is filed as cell-based, human.
Series [3] has as its system ESR1 mRNA. In words: Real-time PCR of ESR1 mRNA, T47D. The conditions noted are these: Supplementary Fig. 1b. It counts as cell-based, human. A general note: Quantitative PCR measures a nucleic acid by following its amplification.
A further series concerns PARP and Bcl-2. Description: PARP and Bcl-2 by western blot, LCC2. As to conditions: LCC2, 50 or 100 nM, 48 h. It counts as cell-based, human.
The next series deals with LCC2 xenografts. Description: Tamoxifen-resistant LCC2 xenografts in nude mice. It counts as in vivo.
For series [4], the system named is ERα transcriptional activity (ERE). In words: ERE-luciferase assay, MCF-7. As to conditions: Fig. 3i, MCF-7 and T47D. It is filed as cell-based, human.
Series [5] has as its system ESR1 mRNA. Description: Real-time PCR of ESR1 mRNA, MCF-7. It counts as cell-based, human. The conditions noted are these: MCF-7, Supplementary Fig. 1a.
In series [6] the test system is Tamoxifen-resistant patient-derived organoids (PDOs). Description: Organoid live/dead staining. The conditions noted are these: PDO. It counts as cell-based, human.
A further series concerns the target T1, ERα (Homo sapiens, UniProt P03372).
T1 sequence (P03372 1-595): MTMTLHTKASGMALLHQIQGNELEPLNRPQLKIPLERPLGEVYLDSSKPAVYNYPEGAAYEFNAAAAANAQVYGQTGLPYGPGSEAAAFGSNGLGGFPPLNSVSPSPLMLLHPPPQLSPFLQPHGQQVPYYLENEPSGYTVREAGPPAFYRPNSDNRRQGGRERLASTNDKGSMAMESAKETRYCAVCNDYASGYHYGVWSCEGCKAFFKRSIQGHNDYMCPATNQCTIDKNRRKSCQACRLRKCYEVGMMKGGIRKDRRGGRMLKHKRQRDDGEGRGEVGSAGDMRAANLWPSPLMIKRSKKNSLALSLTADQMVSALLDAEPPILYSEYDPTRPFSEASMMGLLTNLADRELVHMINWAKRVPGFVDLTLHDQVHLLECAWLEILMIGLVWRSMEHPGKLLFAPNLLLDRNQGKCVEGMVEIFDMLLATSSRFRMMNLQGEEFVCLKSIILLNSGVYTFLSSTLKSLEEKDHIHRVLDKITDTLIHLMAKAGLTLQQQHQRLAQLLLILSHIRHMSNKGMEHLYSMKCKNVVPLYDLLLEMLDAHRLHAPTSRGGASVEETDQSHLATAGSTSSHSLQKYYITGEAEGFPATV
It counts as cell-based. As to conditions: MCF-7 and T47D, with Bufalin.

Peptide text beside a SMILES is read from it. * marks the point of attachment. Cbz = O=C(OCc1ccccc1)*

Take `C[C@]12CC[C@H](O)C[C@H]1CC[C@@H]1[C@@H]2CC[C@]2(C)[C@@H](c3ccc(=O)oc3)CC[C@]12O` [Bufalin]: the “Anti-cancer effects compared with Fulvestrant” value with MCF-7 cells was “stronger anti-cancer effects than Fulvestrant”; in series [2] it was “better anti-cancer effects than Fulvestrant”. In addition, the “Toxicity by serum liver and kidney markers” value in series [1] is reported as “no significant signs of drug-induced toxicity”. Also, the “mRNA of ERα” value in the series on ESR1 mRNA [3] and in the series on ESR1 mRNA [5] was “no obvious change” throughout. The “Apoptosis markers PARP and Bcl-2” value with PARP and Bcl-2 is “PARP cleavage, and Bcl-2 downregulation”. Moreover, in the series with LCC2 xenografts (IHC and western blot), the “ERα protein expression in tumors” value is reported as “the protein expression of ERα was decreased”. The “Anti-tumor activity compared with Fulvestrant” value in the series with LCC2 xenografts (LCC2 xenografts) is given as “superior anti-tumor activity to Fulvestrant”. In addition, the “Ki67 in tumors (IHC)” value in the series on LCC2 xenografts (LCC2 xenografts) was “marked Ki67 suppression”. In addition, the “Tumor volumes and weights” value in the series with LCC2 xenografts (intraperitoneal injection) was “the tumor volumes and weights significantly decreased”. For the same compound, the “Transcriptional activity of ERα (ERE luciferase)” value in [4] is reported as “weakened the transcriptional activity of ERα”. For the same compound, the “Cell death by Calcein-AM/PI staining” value in series [6] is given as “extensive cell death”.

For the compound `CC(C)C[C@@H](C=O)NC(=O)[C@H](CC(C)C)NC(=O)[C@H](CC(C)C)NC(=O)OCc1ccccc1` [MG-132] (Cbz-Leu-Leu-Leu-aldehyde), the “Effect of co-treatment on Bufalin-induced ERα decrease” value on ERα was “effectively prevented the Bufalin-induced decrease in ERα protein levels”.

Regarding `NS(=O)(=O)OC[C@@H]1C[C@@H](n2ccc3c(N[C@H]4CCc5ccccc54)ncnc32)C[C@@H]1O` [MLN4924], the “Effect of co-treatment on Bufalin-induced ERα decrease” value on ERα is recorded as “reversed the Bufalin-mediated downregulation of ERα”.

(Values after PMC12373995 (Nature Communications, 2025).)
